Test results from US6525001B1, “Substituted pyrimidine and pyridine herbicides” (Mid-American Commercialization Corporation, priority 1997, dated 2003).

How the values were obtained:
Assay type in all cases: in vivo
[1] = system: kochia (Kochia scoparia); assay: Test E pre-/postemergence/post directed; parameters: key: 0 is no effect; 100 is complete control; settings: PREEMERGENCE
Procedure, shortened: (§1)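 Injury was scored visually on a 0 to 100 scale (100 = complete control) 13 to 21 days after treatment of greenhouse-grown plants. Test chemicals, in a surfactant-containing non-phytotoxic solvent, were sprayed onto soil within a day of planting, onto plants at the two to four leaf stage, or directed at the base of the plants.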

[2] = system: common groundsel (Senecio vulgaris); assay: Test E pre-/postemergence/post directed; parameters: key: 0 is no injury; 100 is complete control
Procedure, shortened: as §1

[3] = system: sugarcane (Saccharum officinarum); assay: Test E pre-/postemergence/post directed; parameters: key: 0 is no injury; 100 is complete control
Procedure, shortened: as §1

[4] = system: downy brome (Bromus tectorum); assay: Test D; parameters: key: 0 is no effect; 10 is complete control; settings: PREEMERGENCE, Rate 62 g/ha
[5] = system: downy brome (Bromus tectorum); assay: Test D; parameters: key: 0 is no effect; 100 is complete control; settings: PREEMERGENCE
[6] = system: field violet (Viola arvensis); assay: Test D; parameters: key: 0 is no effect; 100 is complete control; settings: POSTEMERGENCE
Procedure, shortened: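 Surfactant-containing, non-phytotoxic solvent formulations; postemergence application is onto 1- to 4-leaf-stage plants in a 60:40 sandy loam/potting mix. Greenhouse hold of approximately 21–28 days precedes visual scoring on a 0–100 control scale.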

[7] = system: Russian thistle (Salsola kali); assay: Test D; settings: POSTEMERGENCE
Method: (§2) Compounds evaluated in this test were formulated in a non-phytotoxic solvent mixture which included a surfactant and applied to plants that were in the 1- to 4-leaf stage (postemergence application). A mixture of sandy loam soil and greenhouse potting mix in a 60:40 ratio was used for the postemergence test.
(§3) Plantings of these crops and weed species were adjusted to produce plants of appropriate size for the postemergence test. All plant species were grown using normal greenhouse practices. Crop and weed species include alfalfa (Medicago sativa), annual bluegrass (Poa annua), blackgrass (Alopecurus myosuroides), black nightshade (Solanum nigra), chickweed (Stellaria media), common poppy (Papaver rhoeas), deadnettle (Lamium amplexicaule), downy brome (Bromus tectorum), field violet (Viola arvensis), galium 2 (Galium aparine), green foxtail (Setaria viridis), Italian ryegrass (Lolium multiflorum), jointed goatgrass (Aegilops cylindrica), kochia (Kochia scoparia), lambsquarters (Chenopodium album), lentil (Lens culinaris), littleseed canarygrass (Phalaris minor), pea (Pisum sativum), potato (Solanum tuberosum), rape (Brassica napus), redroot pigweed (Amaranthus retroflexus), Russian thistle (Salsola kali), scentless chamomile (Matricaria inodora), sorghum (Sorghum vulgare), spring barley (Hordeum vulgare), sugar beet (Beta vulgaris), sunflower (Helianthus annuus), ivyleaf speedwell (Veronica hederaefolia), spring wheat (Triticum aestivum), winter wheat (Triticum aestivum), wild buckwheat (Polygonum convolvulus), wild mustard (Sinapis arvensis), wild oat (Avena fatua), windgrass (Apera spica-venti) and winter barley (Hordeum vulgare).
(§4) Treated plants and untreated controls were maintained in a greenhouse for approximately 21 to 28 days, after which all treated plants were compared to untreated controls and visually evaluated. Plant response ratings, summarized in Table D, are based upon a 0 to 100 scale where 0 is no effect and 100 is complete control. A dash response (−) means no test result.

[8] = system: wild buckwheat (Polygonum convolvulus); assay: Test D; parameters: key: 0 is no effect; 10 is complete control; settings: PREEMERGENCE, Rate 62 g/ha
[9] = system: lambsquarters (Chenopodium album); assay: Test D; parameters: key: 0 is no effect; settings: POSTEMERGENCE
Method: as §2, §3, §4

[10] = system: alexandergrass (Brachiaria plantaginea); assay: Test E pre-/postemergence/post directed; parameters: key: 0 is no injury; 100 is complete control; settings: PREEMERGENCE
Procedure, shortened: as §1

[11] = system: itchgrass (Rottboellia exaltata); assay: Test E pre-/postemergence/post directed; parameters: key: 0 is no injury; 100 is complete control; settings: PREEMERGENCE
Procedure, shortened: as §1

[12] = system: johnson grass (Sorghum halepense); assay: Test E pre-/postemergence/post directed; parameters: key: 0 is no injury; 100 is complete control; settings: PREEMERGENCE
Procedure, shortened: as §1

[13] = system: surinam grass (Brachiaria decumbens); assay: Test E pre-/postemergence/post directed; parameters: key: 0 is no injury; 100 is complete control; settings: PREEMERGENCE
Procedure, shortened: as §1

[14] = system: wild buckwheat (Polygonum convolvulus); assay: Test D; parameters: key: 0 is no effect; 100 is complete control; settings: PREEMERGENCE, Rate 125 g/ha
[15] = system: Spanishneedles (Bidens bipinnata); assay: Test E pre-/postemergence/post directed; parameters: key: 0 is no injury; 100 is complete control; settings: PREEMERGENCE
Procedure, shortened: as §1

[16] = system: itchgrass (Rottboellia exaltata); assay: Test E pre-/postemergence/post directed; parameters: key: 0 is no effect; 100 is complete control; settings: PREEMERGENCE
Procedure, shortened: as §1

## Cc1cnc(-c2ccc(C(F)(F)F)cc2)nc1Cc1cccc(OC(F)(F)F)c1 [Compound 15]
[1]; Rate 32 g/ha
  Plant response rating, Kochia: 60
[1]; Rate 64 g/ha
  Plant response rating, Kochia: 75
[1]; Rate 125 g/ha
  Plant response rating, Kochia: 95
[1]; Rate 250 g/ha
  Plant response rating, Kochia: 100
[2]; POSTEMERGENCE, Rate 125 g/ha
  Plant response rating, Com. groundsel: 0
[3]; PREEMERGENCE, Rate 32 g/ha
  Plant response rating, Sugarcane: 0
[3]; PREEMERGENCE, Rate 64 g/ha
  Plant response rating, Sugarcane: 0
[3]; PREEMERGENCE, Rate 125 g/ha
  Plant response rating, Sugarcane: 10
[3]; PREEMERGENCE, Rate 250 g/ha
  Plant response rating, Sugarcane: 10

## CCc1cnc(-c2ccc(C(F)(F)F)cc2)nc1Cc1cccc(C(F)(F)F)c1 [Compound 22]
[4]
  Plant response rating, Downy brome: 0
[5]; Rate 125 g/ha
  Plant response rating, Downy brome: 100
[6]; Rate 62 g/ha
  Plant response rating, Field violet: 100
[6]; Rate 125 g/ha
  Plant response rating, Field violet: 100
[7]; Rate 62 g/ha
  Plant response rating, Russian thistle: 80
[7]; Rate 125 g/ha
  Plant response rating, Russian thistle: 80
[8]
  Plant response rating, Wild buckwheat: 0
[9]; Rate 62 g/ha
  Plant response rating, Lambsquarters: 60
[9]; Rate 125 g/ha
  Plant response rating, Lambsquarters: 60

## COc1cnc(-c2ccc(C(F)(F)F)cc2)nc1Cc1cccc(C(F)(F)F)c1 [Compound 23]
[10]; Rate 32 g/ha
  Plant response rating, Alexandergrass: 0
[10]; Rate 64 g/ha
  Plant response rating, Alexandergrass: 0

## Cc1cnc(-n2cnc(C(F)(F)F)c2)nc1Cc1cccc(C(F)(F)F)c1 [Compound 44]
[11]; Rate 32 g/ha
  Plant response rating, Itchgrass: 0
[11]; Rate 64 g/ha
  Plant response rating, Itchgrass: 0
[12]; Rate 64 g/ha
  Plant response rating, Johnsongrass: 0
[10]; Rate 32 g/ha
  Plant response rating, Alexandergrass: 0

## CCc1cnc(-n2ccc(C(F)(F)F)n2)nc1Cc1cccc(C(F)(F)F)c1 [Compound 46]
[11]; Rate 32 g/ha
  Plant response rating, Itchgrass: 0
[11]; Rate 64 g/ha
  Plant response rating, Itchgrass: 0
[12]; Rate 32 g/ha
  Plant response rating, Johnsongrass: 0
[12]; Rate 64 g/ha
  Plant response rating, Johnsongrass: 0
[12]; Rate 125 g/ha
  Plant response rating, Johnsongrass: 0
[12]; Rate 250 g/ha
  Plant response rating, Johnsongrass: 0
[13]; Rate 32 g/ha
  Plant response rating, Surinam grass: 0
[13]; Rate 64 g/ha
  Plant response rating, Surinam grass: 0
[10]; Rate 32 g/ha
  Plant response rating, Alexandergrass: 0
[10]; Rate 64 g/ha
  Plant response rating, Alexandergrass: 0

## Cc1cnc(-n2ccc(C(F)(F)F)n2)nc1Cn1ccc(C(F)(F)F)n1 [Compound 52]
[14]
  Plant response rating, Wild buckwheat: 100
[9]; Rate 16 g/ha
  Plant response rating, Lambsquarters: 70
[9]; Rate 31 g/ha
  Plant response rating, Lambsquarters: 80
[9]; Rate 62 g/ha
  Plant response rating, Lambsquarters: 80
[9]; Rate 125 g/ha
  Plant response rating, Lambsquarters: 80

## Cc1cnc(-n2cnc(C(F)(F)F)n2)nc1C(=O)c1cccc(C(F)(F)F)c1 [Compound 67]
[15]; Rate 32 g/ha
  Plant response rating, Spanishneedles: 0
[15]; Rate 64 g/ha
  Plant response rating, Spanishneedles: 0
[2]; PREEMERGENCE, Rate 32 g/ha
  Plant response rating, Com. groundsel: 0

## Cc1cnc(-c2ccc(C(F)(F)F)cc2)nc1Cc1cccc(C(F)(F)F)c1 [Example 1, 5-methyl-2-[4-(trifluoromethyl)phenyl]-4-[[3-(trifluoromethyl)phenyl]methyl]pyrimidine]
[5]; Rate 250 g/ha
  Plant response rating, Downy brome: 100
[6]; Rate 16 g/ha
  Plant response rating, Field violet: 20
[6]; Rate 31 g/ha
  Plant response rating, Field violet: 100
[6]; Rate 62 g/ha
  Plant response rating, Field violet: 100
[6]; Rate 125 g/ha
  Plant response rating, Field violet: 80
[1]; Rate 32 g/ha
  Plant response rating, Kochia: 95
[1]; Rate 64 g/ha
  Plant response rating, Kochia: 100
[1]; Rate 125 g/ha
  Plant response rating, Kochia: 100
[7]; Rate 16 g/ha
  Plant response rating, Russian thistle: 40
[7]; Rate 62 g/ha
  Plant response rating, Russian thistle: 60
[7]; Rate 125 g/ha
  Plant response rating, Russian thistle: 50
[9]; Rate 16 g/ha
  Plant response rating, Lambsquarters: 0
[9]; Rate 31 g/ha
  Plant response rating, Lambsquarters: 60
[9]; Rate 62 g/ha
  Plant response rating, Lambsquarters: 60
[9]; Rate 125 g/ha
  Plant response rating, Lambsquarters: 50

## Cc1cnc(-n2ccc(C(F)(F)F)n2)nc1Cc1cccc(C(F)(F)F)c1 [Example 2, 5-methyl-4-[[3-(trifluoromethyl)phenyl]methyl]-2-[3-(trifluoromethyl)-1H-pyrazol-1-yl]pyrimidine]
[16]; Rate 500 g/ha
  Plant response rating, Itchgrass: 100
[2]; POSTEMERGENCE, Rate 32 g/ha
  Plant response rating, Com. groundsel: 0
[3]; POSTEMERGENCE, Rate 32 g/ha
  Plant response rating, Sugarcane: 20
[3]; POSTEMERGENCE, Rate 64 g/ha
  Plant response rating, Sugarcane: 20
[3]; POSTEMERGENCE, Rate 125 g/ha
  Plant response rating, Sugarcane: 20
[3]; POSTEMERGENCE, Rate 250 g/ha
  Plant response rating, Sugarcane: 25
[3]; POSTEMERGENCE, Rate 500 g/ha
  Plant response rating, Sugarcane: 25
[3]; PREEMERGENCE, Rate 64 g/ha
  Plant response rating, Sugarcane: 0

## Cc1cnc(-c2ccc(C(F)(F)F)cc2)nc1Cn1ccc(C(F)(F)F)n1 [compound 9]
[16]; Rate 32 g/ha
  Plant response rating, Itchgrass: 100
[16]; Rate 125 g/ha
  Plant response rating, Itchgrass: 100
[16]; Rate 250 g/ha
  Plant response rating, Itchgrass: 100
[15]; Rate 32 g/ha
  Plant response rating, Spanishneedles: 0
[13]; Rate 32 g/ha
  Plant response rating, Surinam grass: 0
